Data: patent publication US20250163052A1, “cGAS INHIBITORS AND USES THEREOF” (Cornell University, priority 2022, published 2025)

Key:
IFNB = test: THP1-Dual cells transfected with DNA, Ifnb expression (Quantiluc); type: cell-based; conditions: Homo sapiens; for inhibition at 10 µM: THP-1, 10 μM; for inhibition at 30 µM: THP-1, 30 μM
Protocol: (§1) Evaluation of active cGAS inhibitors in THP1 cells (Table 3). Cellular activity of all compounds (in Table 3) was determined using THP1-Dual™ cells as described (Lama et. al., 2019). THP1-Dual™ cells (Invivogen) (50000 cells in 100 μl media) were seeded into each well of a 96-well plate and treated with compounds at various dilution for 4 hours. Subsequently, cells were transfected with DNA (2 ug/ml) and lipofectamine and incubate the cells were incubated overnight. Ifnb expression was measured in cell supernatant using Quantiluc, nfkb expression was determined using Quantiblue, and cell viability using Promega® CellTiter-Glo®.

NFkB-SEAP = test: THP1-Dual cells transfected with DNA, nfkb expression (Quantiblue); type: cell-based; conditions: Homo sapiens; for inhibition at 10 µM: THP-1, 10 μM; for inhibition at 30 µM: THP-1, 30 μM
Protocol: as §1

THP1 cells = test: THP1-Dual cells, cell viability (CellTiter-Glo); type: cell-based
Protocol: as §1

h-cGAS = h-cGAS (Homo sapiens, UniProt Q8N884); test: Cell-free human cGAS enzyme inhibition assay (ATP depletion, Kinase-Glo Max); type: biochemical; conditions: 3 h; for inhibition at 1 µM: read-out: h-cGAS, conc. 1 μM; for inhibition at 10 µM: read-out: h-cGAS, conc. 10 μM
h-cGAS, sequence (Q8N884 whole entry): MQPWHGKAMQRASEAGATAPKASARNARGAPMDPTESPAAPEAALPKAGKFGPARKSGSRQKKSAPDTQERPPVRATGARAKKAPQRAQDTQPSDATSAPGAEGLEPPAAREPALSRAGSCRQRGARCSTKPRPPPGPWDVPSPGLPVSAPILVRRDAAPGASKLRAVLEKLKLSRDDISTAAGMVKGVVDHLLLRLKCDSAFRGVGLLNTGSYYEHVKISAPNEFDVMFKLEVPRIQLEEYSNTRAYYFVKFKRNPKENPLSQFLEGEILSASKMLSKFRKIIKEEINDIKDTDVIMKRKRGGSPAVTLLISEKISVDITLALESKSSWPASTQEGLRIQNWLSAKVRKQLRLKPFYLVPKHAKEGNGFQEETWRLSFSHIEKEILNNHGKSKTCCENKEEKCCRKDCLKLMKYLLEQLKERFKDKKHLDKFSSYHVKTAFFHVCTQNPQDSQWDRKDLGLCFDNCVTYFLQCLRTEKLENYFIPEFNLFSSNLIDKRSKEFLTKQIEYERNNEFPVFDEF
Protocol: (§2) Cell-free mouse and human cGAS enzyme inhibition assay (Table 2). Activity of all compounds (in Table 1) against m-cGAS (30 nM) and or h-cGAS, (100 nM) was determined by measuring the conversion of ATP and GTP (100 μM each) to cGAMP in the presence of dsDNA (5 ug/mL) in a reaction buffer composed of Tris-HCl (20 mM, pH7.4), NaCl (150 mM), MnCl2 (0.2 mM, h-cGAS) or MgCl2 (5 mM, m-cGAS) and Tween-20 (0.01%), and the remaining ATP concentration using Kinase-Glo®Max Luminescent Kinase Assay (Promega, Madison, WI), as described (Lama, et. al., 2019). Briefly, 10 μl of a master mix of 0.4 mM ATP, 0.4 mM GTP, 0.02 mg/mL dsDNA in the reaction buffer supplemented with 2 mM DTT was added to reaction wells containing TDI-6570 or TDI-8246 (2× of the desired concentration) in the same buffer ([…]) using a Thermo 8-channel Multidrop Combi dispenser. Next, 10 μl of a 4×m-cGAS (0.120 μM) or h-cGAS (0.4 μM) solution in the reaction buffer supplemented with 2 mM DTT was added to appropriate wells. Similar sets of reactions without cGAS or the inhibitor was set by adding the buffer alone. The reactions with the plates sealed were incubated at 37° C. (1 hour for m-cGAS and 3 hours for h-cGAS) and stopped by addition of 40 μl of the Kinase-Glo®Max. The luminescence was recorded in relative light units (RLUs) using a Biotek Synergy H1 Hybrid plate reader (BioTek, Winooski, VT). […] All reactions were run in triplicates and calculated using GraphPad Prism 9. The values represent mean IC50±S.D.

m-cGAS = m-cGAS (Mus musculus, UniProt Q8C6L5); test: Cell-free mouse cGAS enzyme inhibition assay (ATP depletion, Kinase-Glo Max); type: biochemical; conditions: 1 h; for inhibition at 1 µM: read-out: m-cGAS, conc. 1 μM; for inhibition at 10 µM: read-out: m-cGAS, conc. 10 μM
m-cGAS, sequence (Q8C6L5 whole entry): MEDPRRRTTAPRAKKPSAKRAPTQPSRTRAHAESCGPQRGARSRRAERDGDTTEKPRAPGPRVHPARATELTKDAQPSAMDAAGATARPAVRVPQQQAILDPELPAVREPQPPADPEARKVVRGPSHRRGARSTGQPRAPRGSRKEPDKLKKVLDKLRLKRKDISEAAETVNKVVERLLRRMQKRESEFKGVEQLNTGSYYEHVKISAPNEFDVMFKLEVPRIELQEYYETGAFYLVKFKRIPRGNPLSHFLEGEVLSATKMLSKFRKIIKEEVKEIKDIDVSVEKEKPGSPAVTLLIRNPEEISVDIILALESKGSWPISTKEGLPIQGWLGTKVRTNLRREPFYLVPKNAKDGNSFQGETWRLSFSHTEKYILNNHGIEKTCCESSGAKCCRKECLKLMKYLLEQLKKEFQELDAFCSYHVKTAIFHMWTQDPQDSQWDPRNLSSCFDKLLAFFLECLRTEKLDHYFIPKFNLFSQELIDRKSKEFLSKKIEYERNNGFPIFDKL
Protocol: as §2

Row | SMILES | inhibition at 1 µM (h-cGAS) | inhibition at 10 µM (h-cGAS) | inhibition at 1 µM (m-cGAS) | inhibition at 10 µM (m-cGAS) | inhibition at 10 µM (IFNB) | inhibition at 10 µM (NFkB-SEAP) | inhibition at 30 µM (NFkB-SEAP) | Cell viability 10 μM (THP1 cells) | Cell viability 30 μM (THP1 cells) | inhibition at 30 µM (IFNB)
1 | O=C(CO)N1CCc2[nH]c3c(Cl)c(Cl)cc(O)c3c2C1 [Compound 3] | 50 to 74% | 75 to 100% | 75 to 100% | 75 to 100% | < 24% | < 24% | < 24% | +++ (+, ++, and +++ mean the compound respectively shows 25-49%; 50-74%; or 75-100% viability to cells) | +++ (+, ++, and +++ mean the compound respectively shows 25-49%; 50-74%; or 75-100% viability to cells) | 
2 | Cn1c2c(c3c(Br)cc(Cl)c(Cl)c31)CN(C(=O)CN)CC2 [Compound 6] | 0 to 24% | 75 to 100% |  | 75 to 100% | < 24% | < 24% | 25 to 49% | +++ (+, ++, and +++ mean the compound respectively shows 25-49%; 50-74%; or 75-100% viability to cells) | +++ (+, ++, and +++ mean the compound respectively shows 25-49%; 50-74%; or 75-100% viability to cells) | < 24%
3 | NCC(=O)N1CCc2oc3c(Cl)c(Cl)cc(-c4cncnc4)c3c2C1 [Compound 32] | 25 to 49% | 50 to 74% | 50 to 74% | 75 to 100% | < 24% | < 24% | < 24% | +++ (+, ++, and +++ mean the compound respectively shows 25-49%; 50-74%; or 75-100% viability to cells) | +++ (+, ++, and +++ mean the compound respectively shows 25-49%; 50-74%; or 75-100% viability to cells) | < 24%
4 | Nc1ccc(-c2cc(Cl)c(Cl)c3[nH]c4c(c23)CN(C(=O)[C@@H]2CCCN2)CC4)cn1 [Compound 16] |  | 75 to 100% |  | 0 to 24% | 75 to 100% | 75 to 100% | 75 to 100% | +++ (+, ++, and +++ mean the compound respectively shows 25-49%; 50-74%; or 75-100% viability to cells) | + (+, ++, and +++ mean the compound respectively shows 25-49%; 50-74%; or 75-100% viability to cells) | 75 to 100%
5 | Nc1ccc(-c2cc(Cl)c(Cl)c3oc4c(c23)CN(C(=O)CO)CC4)cn1 [Compound 26] | 50 to 74% | 75 to 100% |  | 25 to 49% | 50 to 74% |  |  | +++ (+, ++, and +++ mean the compound respectively shows 25-49%; 50-74%; or 75-100% viability to cells) | +++ (+, ++, and +++ mean the compound respectively shows 25-49%; 50-74%; or 75-100% viability to cells) | 75 to 100%
6 | Cn1ccc(-c2cc(Cl)c(Cl)c3sc4c(c23)CN(C(=O)CO)CC4)n1 [Compound 46] | 50 to 74% | 75 to 100% |  | 0 to 24% | 25 to 49% |  |  | +++ (+, ++, and +++ mean the compound respectively shows 25-49%; 50-74%; or 75-100% viability to cells) | ++ (+, ++, and +++ mean the compound respectively shows 25-49%; 50-74%; or 75-100% viability to cells) | 75 to 100%
7 | O=C(CO)N1CCc2sc3c(Cl)c(Cl)cc(-c4cn[nH]c4)c3c2C1 [Compound 51] | 0 to 24% | 25 to 49% |  | 0 to 24% | 25 to 49% |  |  | +++ (+, ++, and +++ mean the compound respectively shows 25-49%; 50-74%; or 75-100% viability to cells) | +++ (+, ++, and +++ mean the compound respectively shows 25-49%; 50-74%; or 75-100% viability to cells) | 75 to 100%

Second part, led by results:

Row | inhibition at 1 µM (h-cGAS) | inhibition at 10 µM (h-cGAS) | inhibition at 1 µM (m-cGAS) | inhibition at 10 µM (m-cGAS) | SMILES | inhibition at 10 µM (IFNB) | inhibition at 10 µM (NFkB-SEAP) | inhibition at 30 µM (NFkB-SEAP) | Cell viability 10 μM (THP1 cells) | Cell viability 30 μM (THP1 cells) | inhibition at 30 µM (IFNB)
8 |  | 25 to 49% | 25 to 49% | 75 to 100% | NCC(=O)N1CCc2c(sc3c(Cl)c(Cl)cc(-c4ccncc4)c23)C1 [Compound 79] | 75 to 100% | 50 to 74% | 75 to 100% | + (+, ++, and +++ mean the compound respectively shows 25-49%; 50-74%; or 75-100% viability to cells) | − (Cell viability <24%, in THP1 cells is expressed as “−”) | 75 to 100%
9 | 0 to 24% | 50 to 74% | 0 to 24% | 50 to 74% | NCC(=O)N1CCc2c(sc3c(Cl)c(Cl)cc(-c4cccs4)c23)C1 [Compound 81] | 50 to 74% | 75 to 100% | 75 to 100% | +++ (+, ++, and +++ mean the compound respectively shows 25-49%; 50-74%; or 75-100% viability to cells) | − (Cell viability <24%, in THP1 cells is expressed as “−”) | 75 to 100%
10 | 0 to 24% | 50 to 74% |  | 75 to 100% | CNc1ccc(-c2cc(Cl)c(Cl)c3sc4c(c23)CCN(C(=O)CN)C4)cn1 [Compound 76] | 75 to 100% | < 24% | 75 to 100% | +++ (+, ++, and +++ mean the compound respectively shows 25-49%; 50-74%; or 75-100% viability to cells) | +++ (+, ++, and +++ mean the compound respectively shows 25-49%; 50-74%; or 75-100% viability to cells) | 75 to 100%
11 | 0 to 24% | 50 to 74% | 0 to 24% | 75 to 100% | NCC(=O)N1CCc2sc3c(Cl)c(Cl)cc(-c4cncnc4)c3c2C1 [Compound 53] | < 24% | 25 to 49% | 50 to 74% | +++ (+, ++, and +++ mean the compound respectively shows 25-49%; 50-74%; or 75-100% viability to cells) | − (Cell viability <24%, in THP1 cells is expressed as “−”) | 75 to 100%
12 | 25 to 49% | 50 to 74% | 25 to 49% | 75 to 100% | Cn1ccc(-c2cc(Cl)c(Cl)c3sc4c(c23)CCN(C(=O)CN)C4)n1 [Compound 83] | 50 to 74% | 75 to 100% | 75 to 100% | ++ (+, ++, and +++ mean the compound respectively shows 25-49%; 50-74%; or 75-100% viability to cells) | − (Cell viability <24%, in THP1 cells is expressed as “−”) | 75 to 100%
13 | 25 to 49% | 50 to 74% | 0 to 24% | 50 to 74% | NCC(=O)N1CCc2c(sc3c(Cl)c(Cl)cc(-n4cccn4)c23)C1 [Compound 94] | < 24% | < 24% |  | +++ (+, ++, and +++ mean the compound respectively shows 25-49%; 50-74%; or 75-100% viability to cells) |  | 
14 | 0 to 24% | 50 to 74% | 0 to 24% | 50 to 74% | NCC(=O)N1CCc2c(sc3c(Cl)c(Cl)cc(-c4ccsc4)c23)C1 [Compound 82] | 50 to 74% | 75 to 100% | 75 to 100% | +++ (+, ++, and +++ mean the compound respectively shows 25-49%; 50-74%; or 75-100% viability to cells) | + (+, ++, and +++ mean the compound respectively shows 25-49%; 50-74%; or 75-100% viability to cells) | 75 to 100%
15 | 0 to 24% | 50 to 74% |  | 0 to 24% | O=C(CO)N1CCc2sc3c(Cl)c(Cl)cc(-c4ccco4)c3c2C1 [Compound 52] | 25 to 49% |  |  | +++ (+, ++, and +++ mean the compound respectively shows 25-49%; 50-74%; or 75-100% viability to cells) | +++ (+, ++, and +++ mean the compound respectively shows 25-49%; 50-74%; or 75-100% viability to cells) | 75 to 100%
16 |  | 50 to 74% |  | 0 to 24% | Nc1ccc(-c2cc(Cl)c(Cl)c3sc4c(c23)CN(C(=O)[C@H]2CCCN2)CC4)cn1 [Compound 57] | 75 to 100% |  |  | − (Cell viability <24%, in THP1 cells is expressed as “−”) | − (Cell viability <24%, in THP1 cells is expressed as “−”) | 75 to 100%
